Data taken from PubChem BioAssay AID179 (DTP/NCI, 2004).
Several values for one entry are separate records, joined by “and”; a condition that tells them apart may be missing. Equal values may be shown once. Activity calls are given as the source filed them.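 How the source made its calls: active means compounds giving half or more protection of infected cells from virus-caused growth loss, again on retest; inactive means the rest.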 Where a SMILES comes first, the peptide text is derived from it. [ ]: non-standard residue; d: D form. The star is where a group is joined. ξ: configuration not given here. ξPhe(4-NO2) = NC(Cc1ccc([N+](=O)[O-])cc1)C(=O)O; Boc = CC(C)(C)OC(=O)*

System: CEM cells HIV-1 protection, formazan growth assay
Assay: NCI AIDS Antiviral Assay
Conditions: for IC50: measured here: growth of uninfected CEM cells
Summary of the method: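 Human CEM cells, uninfected and HIV-1-infected, exposed to five drug concentrations; growth measured by soluble formazan assay and scored as percent protection from infection, with protecting compounds retested.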

| Structure (SMILES) | EC50 | IC50 | outcome |
| --- | --- | --- | --- |
| COc1ccc(-c2c3c(nc4[nH]c(=S)[nH]c(=S)c24)CCCC3)cc1OC | > 200 µM | 49 µM |  |
| O=C1C=CC(=C(c2ccc(O)cc2)c2ccc(O)cc2)C=C1 |  |  | inactive |
| COc1ccc2c(c1)c(=O)c1ccccc1n2/C=C/C(=O)O | > 617 µM | 105 µM |  |
| O=C(NCCc1c[nH]c2ccccc12)C(F)(F)F | > 200 µM | > 200 µM |  |
| CN(CCN)[C@H](CSSC[C@@H](c1ccccc1O)N(C)CCN)c1ccccc1O | > 200 µM | 17.8 µM |  |
| COc1cc2c(cc1OC)C(C1C(=O)CC(C)(C)CC1=O)NCC2 (stereo not given) |  |  | inactive |
| Cc1occc1C(=S)Nc1ccc(Cl)c(OCC(=O)OC(C)(C)C)c1 | 12.9 µM | 28.2 µM |  |
| C1CCCCc2nc3c(nc2CCC1)c1nc2c(nc1c1nc4c(nc31)CCCCCCCC4)CCCCCCCC2 |  |  | inactive |
| O=C1CCCCC1CN1CCOCC1 (stereo not given) |  |  | inactive |
| CC#N.CC#N.COC(=O)[C@@H]1CCC(=O)[N-]1.COC(=O)[C@@H]1CCC(=O)[N-]1.COC(=O)[C@@H]1CCC(=O)[N-]1.COC(=O)[C@@H]1CCC(=O)[N-]1.[Rh+2].[Rh+2] | > 200 µM | > 200 µM |  |
| CC(=O)[CH-]C(=O)c1ccccc1.CC(=O)[CH-]C(=O)c1ccccc1.[CH2-]CCC.[CH2-]CCC.[Sn+4] | > 46.8 µM | 0.776 µM |  |
| Clc1ccc(N=C/C=C/Nc2ccc(Cl)cn2)nc1 | > 200 µM | 13.8 µM |  |
| CC(C)/C(Cl)=N/OC(NC(=O)Nc1ccc(Cl)c(Cl)c1)(C(F)(F)F)C(F)(F)F |  |  | inactive |
| O=c1[nH]cnc2c1ncn2C1CCC(CO)O1 (stereo not given) | 6.03 µM | 50.1 µM |  |
| CC1CC(OP(=O)(OCc2ccccc2)OCc2ccccc2)[C@@H](OCc2ccccc2)C(OCc2ccccc2)C1OCc1ccccc1 (stereo not given in full) | > 100 µM | > 100 µM |  |
| O=c1c(-c2c(O)cc(O)c3c2O[C@H](c2ccc(O)cc2)[C@@H](O)C3)c(-c2ccc(O)cc2)oc2cc(O)cc(O)c12 | > 200 µM and 31.6 µM | 75.9 µM and > 100 µM |  |
| O=C(O)c1cnccc1-c1cc(=O)[nH]n1-c1ccccc1 | > 200 µM | 30.2 µM |  |
| Cc1cccc(C(=O)NCCN(C)C)c1[N+](=O)[O-] | > 200 µM | > 200 µM |  |
| CCc1ccccc1NC(=O)CCc1n[nH]c(=S)o1 | 44.7 µM | 67.6 µM |  |
| NC(CCCCCC(N)C(=O)O)C(=O)O (stereo not given) |  |  | inactive |
| NN=C(N)N | > 200 µM | > 200 µM |  |

| Structure (SMILES) | EC50 | IC50 | outcome |
| --- | --- | --- | --- |
| CCCCCCCCCCCCCCCCCCCCOC1OC(COC(C)=O)C(OC(C)=O)C(OC(C)=O)C1OC(C)=O (stereo not given) | > 35.5 µM | > 35.5 µM |  |
| O=C(c1cc2ccccc2o1)N(Cc1ccccc1)c1ccccc1 | > 79.4 µM | > 79.4 µM |  |
| O=[N+]([O-])c1ccc(C2NC3=C(CCCC3)N2)cc1 | > 40.7 µM | > 40.7 µM |  |
| Cc1cc(=O)[nH]c2cc(NC(=O)C(CCCN=C(N)N)NC(=O)OCc3ccccc3)ccc12 (stereo not given) | > 200 µM | > 200 µM |  |
| Cc1ncc2c(=O)c3c(oc2n1)c1ccccc1n3Cc1ccccc1 | > 200 µM | > 200 µM |  |
| C=CCCC1CCCCNC1=S (stereo not given) | > 200 µM | > 200 µM |  |
| O=C(O)/C(Cl)=C(Cl)/C=N/NC(=O)c1cc2ccccc2cc1O | > 102 µM | 5.75 µM |  |
| O=C(CC1(O)C(=O)Nc2c(Cl)cc(Cl)cc21)c1ccc(Br)cc1 (stereo not given) | > 26.9 µM | 15.8 µM |  |
| O=C1C2c3[nH]c4ccccc4c3C3CCCCCC3C2C(=O)N1c1ccccc1 (stereo not given) |  |  | inactive |
| O=C(CNc1ccc(Cl)cc1)Nn1c(-c2ccccc2)nc2ccccc2c1=O | > 200 µM | 5.13 µM |  |
| O=C1Cc2ccccc2N1C1c2ccccc2C=Cc2ccccc21 | > 200 µM | 21.4 µM |  |
| CCC(CC)(C(=O)O)C(=O)O | > 200 µM | > 200 µM |  |
| CN(C)[C@@H]1C(=O)C(C(=O)NCNC(CO)(CO)CO)=C(O)[C@@]2(O)C(=O)C3=C(O)c4c(O)cccc4[C@@](C)(O)[C@H]3C[C@@H]12 | > 42.7 µM | 33.9 µM |  |
| CC(C)(C)SSC(=S)C(c1ccccc1)c1ccccc1 | > 200 µM | 182 µM |  |
| CN1CCN(CCCN2c3ccccc3Sc3ccc(Cl)cc32)CC1 | > 200 µM | 3.72 µM |  |
| O/N=C(\CC(O)(C(F)(F)F)C(F)(F)F)c1cccc(Cl)c1 | > 200 µM | 10.7 µM |  |
| N#CC(C(N)=O)C(CC(=O)c1ccccc1)c1ccccc1 (stereo not given) | > 200 µM | 145 µM |  |
| N#COc1ccc(Oc2ccc(OC#N)cc2)cc1 | > 141 µM | 45.7 µM |  |
| CC(C)N(C(=O)C1(C)CC1)C(C)C | > 1350 µM | > 1350 µM |  |
| O=C(Nc1cc(Cl)cc(Cl)c1)/C(Cc1nc2ccccc2[nH]c1=O)=N/NC(=O)c1ccncc1 | > 132 µM | > 132 µM |  |
| CCOc1ccc(/C=C(\C#N)c2cccc(Cl)c2)cc1 | > 200 µM | 8.51 µM |  |

| Structure (SMILES) | EC50 | IC50 | outcome |
| --- | --- | --- | --- |
| O=C(O)C1CCC(c2ccc(Oc3ccccc3)cc2)N1 (stereo not given) | > 200 µM | > 200 µM |  |
| Nc1ccccc1-c1noc(=O)[nH]1 | > 200 µM | > 200 µM |  |
| c1ccc(N2N=NC3C4CC(C32)C2C4N=NN2c2ccccc2)cc1 (stereo not given) | > 200 µM | > 200 µM |  |
| Nc1ccc(C(c2ccccc2)(c2ccccc2)c2ccccc2)cc1 |  |  | inactive |
| CCC1Sc2cc(OC)cc([N+](=O)[O-])c2NC1=O (stereo not given) | > 200 µM | > 200 µM |  |
| C#CCC(O)c1ccccc1C(O)CC#C (stereo not given) |  |  | inactive |
| Nc1nc(NNc2ccc(Cl)c(Cl)c2)cc(=O)[nH]1 | > 200 µM | 49 µM |  |
| CCN(CC)CCCn1c(=O)c2cccnc2n2c3c(=O)n(C)c(=O)n(C)c3nc12 | 25.1 µM | 126 µM |  |
| CCNC(=O)CNC(=O)C(Cc1ccc([N+](=O)[O-])cc1)NC(=O)OC(C)(C)C (stereo not given) (Boc-[ξPhe(4-NO2)]-Gly-NHEt) | 162 µM | 813 µM |  |
| [N-]=[N+]=NC1CC(n2cc(COCC(F)(F)F)c(=O)[nH]c2=O)OC1CO (stereo not given) | 5.75 µM | 251 µM |  |
| CC12CC(OC(=O)[C@]1(C)O)[C@@H]([C@]1(O)CC[C@H]3[C@@H]4C[C@H]5O[C@]56[C@@H](O)C=CC(=O)[C@]6(C)[C@H]4CC[C@@]31C)C2 (stereo not given in full) | > 3.89 µM | 0.145 µM |  |
| N#Cc1c(NN)nc(NN)c(C#N)c1-c1ccccc1 | > 97.7 µM | 50.1 µM |  |
| NCC(CS)C(=O)NC(CS)C(=O)NC(CS)C(=O)NCCNc1ccc(NCCNC(=O)C(CS)NC(=O)C(CS)NC(=O)C(CN)CS)c2c1C(=O)c1c(O)ccc(O)c1C2=O (stereo not given) | > 2 µM | 0.0126 µM |  |
| CC(=O)OC(C#N)CC(C)(C)/[N+]([O-])=[N+](\[O-])C(C)(C)CC(C#N)OC(C)=O (stereo not given) | > 20 µM | 3.63 µM |  |
| CCOC(=O)c1[nH]cc(C)c1-c1ccn(-c2ccccc2)c1 | > 200 µM | 45.7 µM |  |
| C/C(=N/NC(=O)c1ccccc1S(N)(=O)=O)C(CN1CCCCC1)C(C1=C(O)C2C=CC=CC2OC1=O)c1ccccc1 (stereo not given) | > 21.4 µM | > 21.4 µM |  |
| Cc1cc(N(CCC#N)CCC#N)ccc1/C=N/NC(=O)c1ccccc1 | > 200 µM | 7.41 µM |  |
| CN1C(C(=O)Nc2nccs2)=C(O)c2ccccc2S1(=O)=O | > 200 µM | 191 µM |  |
| Cn1cc(NC(=O)Nc2cc(C(=O)Nc3cc(C(=O)Nc4cc(C(=O)Nc5ccc6cc(S(=O)(=O)O)cc(S(=O)(=O)O)c6c5)n(C)c4)n(C)c3)n(C)c2)cc1C(=O)Nc1cc(C(=O)Nc2cc(C(=O)Nc3ccc4cc(S(=O)(=O)O)cc(S(=O)(=O)O)c4c3)n(C)c2)n(C)c1 | 0.977 µM | 117 µM |  |
| Nc1[nH]c(=O)nc(Nc2ccc(Cl)c(Cl)c2)c1N=O | > 200 µM | 13.5 µM |  |
| O=C(O)CN1CCNCCN(CP(=O)(O)O)CC1 | > 200 µM | 10.5 µM |  |

| Structure (SMILES) | EC50 | IC50 | outcome |
| --- | --- | --- | --- |
| CC(=O)N(C(C)=O)n1c(Cc2ccc(C)cc2)nn(C(C)=O)c1=O | > 200 µM | > 200 µM |  |
| O=S(=O)(SC(Cl)(Cl)Cl)c1cccc(S(=O)(=O)c2cccc(S(=O)(=O)SC(Cl)(Cl)Cl)c2)c1 | > 200 µM | > 200 µM |  |
| COc1ccc(OC)c2cc(C3(C)SCCCS3)ccc12 |  |  | inactive |
| CC1(CC(=O)O)OC2CCCCCC2O1 (stereo not given) (tested in a mixture with another compound) |  |  | inactive |
| O=c1c(-c2ccccc2)nc2ccccc2n1CC1CCCN2CCCC[C@H]12 (stereo not given in full) | > 200 µM | 39.8 µM |  |
| COc1ccccc1NC(=O)C(CC(C(=O)Nc1ccccc1OC)/C(C)=N/NC(=O)c1ccccc1O)/C(C)=N/NC(=O)c1ccccc1O (stereo not given) | > 51.3 µM | > 51.3 µM |  |
| Cn1c(=O)c2ncc(N)nc2n(C)c1=O | > 100 µM | > 100 µM |  |
| CCOP(=O)(OCC)C(Cc1ccc(OC)cc1)NC(=O)C(CC(C)C)NC(=O)OCc1ccccc1 (stereo not given) | > 126 µM | 8.91 µM |  |
| Cc1nc2c(=O)n(-c3ccccc3)c3ccccc3c2o1 | > 200 µM | 145 µM |  |
| CCCCCCCCSCC1OC2OC3C(CSCCCCCCCC)OC(OC4C(CSCCCCCCCC)OC(OC5C(CSCCCCCCCC)OC(OC6C(CSCCCCCCCC)OC(OC7C(CSCCCCCCCC)OC(OC8C(CSCCCCCCCC)OC(OC1C(OS(=O)(=O)O)C2OS(=O)(=O)O)C(OS(=O)(=O)O)C8OS(=O)(=O)O)C(OS(=O)(=O)O)C7OS(=O)(=O)O)C(OS(=O)(=O)O)C6OS(=O)(=O)O)C(OS(=O)(=O)O)C5OS(=O)(=O)O)C(OS(=O)(=O)O)C4OS(=O)(=O)O)C(OS(=O)(=O)O)C3OS(=O)(=O)O (stereo not given) | 2.57 µM | 50.1 µM |  |
| CCCCCCCCSC(=O)n1cc(F)c(=O)[nH]c1=O | > 61.7 µM | > 61.7 µM |  |
| O=C1CN=C(c2ccc[nH]2)c2cc(Cl)ccc2N1 | 2.45 µM | 3.98 µM |  |
| O=C1NC(=O)C2(CCCCC2)N1 | > 200 µM | > 200 µM |  |
| COc1ccccc1NC(=O)C(=O)C(C(=O)c1ccccc1F)C1OC(=O)c2ccccc21 (stereo not given) | > 288 µM | 20.9 µM |  |
| CCCCCCCCCCCc1c(O)c(O)cc2nc3ccc(SCCC)cc3nc12 | > 16.2 µM | 9.33 µM |  |
| O=C(O)CCCC[P+](c1ccccc1)(c1ccccc1)c1ccccc1 | > 200 µM | > 200 µM |  |
| Cc1cc(Cl)ccc1N=C1NC(=O)C(CC(=O)Nc2cccc(Cl)c2)S1 (stereo not given) |  |  | inactive |
| COc1cc2c3c(c1)[nH]c(=S)n3C(=O)C(C)S2 (stereo not given) | > 200 µM | 141 µM |  |
